Measurements reported in article PMC5982776, “The novel anti-androgen candidate galeterone targets deubiquitinating enzymes, USP12 and USP46, to control prostate cancer growth and survival” (Oncotarget, 2018).

Key:
[1] = target: USP46 (Homo sapiens, UniProt P62068); assay: Biacore SPR dose-dependent binding; IC50 from Ub-AMC enzyme inhibition with USP46/UAF1; assay type: biochemical
[2] = target: USP12 (Homo sapiens, UniProt O75317); assay: Biacore SPR dose-dependent binding; IC50 from Ub-AMC enzyme inhibition with USP12/UAF1; assay type: biochemical
USP12, sequence (O75317 whole entry): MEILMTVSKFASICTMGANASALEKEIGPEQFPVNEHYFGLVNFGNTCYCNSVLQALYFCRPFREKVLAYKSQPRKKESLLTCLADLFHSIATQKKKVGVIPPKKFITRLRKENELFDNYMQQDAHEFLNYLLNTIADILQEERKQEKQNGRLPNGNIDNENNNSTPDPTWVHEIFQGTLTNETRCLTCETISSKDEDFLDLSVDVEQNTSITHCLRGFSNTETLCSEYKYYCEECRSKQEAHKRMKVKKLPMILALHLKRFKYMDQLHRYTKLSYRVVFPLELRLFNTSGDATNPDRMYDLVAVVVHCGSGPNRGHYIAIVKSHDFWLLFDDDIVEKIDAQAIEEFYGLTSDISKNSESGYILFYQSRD
USP12, sequence (Q8TAF3 whole entry partner): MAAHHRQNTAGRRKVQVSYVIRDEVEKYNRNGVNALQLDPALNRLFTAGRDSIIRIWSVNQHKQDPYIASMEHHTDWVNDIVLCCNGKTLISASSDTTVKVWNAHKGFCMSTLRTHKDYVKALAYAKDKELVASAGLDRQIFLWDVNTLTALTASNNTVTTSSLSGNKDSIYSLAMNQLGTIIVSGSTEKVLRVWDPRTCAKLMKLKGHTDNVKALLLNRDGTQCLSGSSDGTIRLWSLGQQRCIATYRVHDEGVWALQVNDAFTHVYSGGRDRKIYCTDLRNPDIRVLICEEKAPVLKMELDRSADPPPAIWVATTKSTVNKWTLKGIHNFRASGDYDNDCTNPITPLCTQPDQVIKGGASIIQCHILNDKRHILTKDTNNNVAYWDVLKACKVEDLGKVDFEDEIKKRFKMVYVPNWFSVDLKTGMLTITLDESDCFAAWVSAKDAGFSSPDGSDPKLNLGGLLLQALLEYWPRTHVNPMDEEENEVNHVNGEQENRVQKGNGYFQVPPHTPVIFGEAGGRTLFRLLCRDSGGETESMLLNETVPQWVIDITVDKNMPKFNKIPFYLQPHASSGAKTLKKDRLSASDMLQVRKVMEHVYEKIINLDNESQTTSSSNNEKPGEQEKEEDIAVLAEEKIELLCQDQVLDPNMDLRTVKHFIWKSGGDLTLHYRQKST

USP46, sequence (P62068 whole entry): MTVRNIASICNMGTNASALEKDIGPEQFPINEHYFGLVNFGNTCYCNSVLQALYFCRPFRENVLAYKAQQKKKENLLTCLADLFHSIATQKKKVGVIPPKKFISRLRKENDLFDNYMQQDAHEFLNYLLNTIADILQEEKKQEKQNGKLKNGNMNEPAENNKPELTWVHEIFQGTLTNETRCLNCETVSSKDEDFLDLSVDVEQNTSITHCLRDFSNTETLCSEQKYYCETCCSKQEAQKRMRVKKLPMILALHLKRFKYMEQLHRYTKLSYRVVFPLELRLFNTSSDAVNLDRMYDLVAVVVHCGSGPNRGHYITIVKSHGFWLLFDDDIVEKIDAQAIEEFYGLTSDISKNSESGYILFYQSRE
USP46, sequence (Q8TAF3 whole entry partner): as the sequence (Q8TAF3 whole entry partner) above

IC50 [1]: 3.4 to 4.2 µM | IC50 [2]: 2100 to 3400 nM
SMILES: C[C@]12CC[C@H](O)CC1=CC[C@@H]1[C@@H]2CC[C@]2(C)C(n3cnc4ccccc43)=CC[C@@H]12 [galeterone]
